Measurements: patent publication US20060058361A1, “Therapeutic diphenyl ether ligands” (Pfizer Inc, priority 2004, published 2006)

melting point | SMILES
220 to 222 °C | CNCc1cc(C)c([S+](C)[O-])cc1Oc1ccc(Cl)c(C)c1C (centres unmarked) [Example 19, [2-(4-Chloro-2,3-dimethylphenoxy)-4-methanesulfinyl-5-methylbenzyl]methylamine]
178 to 180 °C | CNC(C)c1cc(F)c(Cl)cc1Oc1ccc(Cl)cc1F (centres unmarked) [Example 41, {1-[4-Chloro-2-(4-chloro-2-fluorophenoxy)-5-fluorophenyl]ethyl}-methylamine]
212 to 214 °C | CNCc1cc(C)c(Cl)cc1Oc1ccc(Cl)cc1F [Example 43, [4-Chloro-2-(4-chloro-2-fluorophenoxy)-5-methylbenzyl]methylamine]
134 to 136 °C | CNCc1cc(C)c(C)cc1Oc1ccc(Cl)cc1F [Example 45, [2-(4-Chloro-2-fluorophenoxy)-4,5-dimethylbenzyl]methylamine]
186 to 188 °C | CNCc1ccc(OC)cc1Oc1ccc(Cl)cc1F [Example 46, [2-(4-Chloro-2-fluorophenoxy)-4-methoxy-benzyl]methylamine]
198 to 220 °C | CNCc1ccc(C)cc1Oc1ccc(Cl)cc1F [Example 47, [2-(4-Chloro-2-fluorophenoxy)-4-methylbenzyl]methylamine]
204 to 206 °C | CNCc1ccc(Br)cc1Oc1ccc(Cl)cc1F [Example 50, [4-Bromo-2-(4-chloro-2-fluorophenoxy)benzyl]methylamine]
184 to 186 °C | CNCc1cc(F)c(S(C)(=O)=O)cc1Oc1ccc(Cl)cc1F [Example 52, [2-(4-Chloro-2-fluorophenoxy)-5-fluoro-4-methanesulfonylbenzyl]methylamine]
204 to 206 °C | CNCc1ccc(Cl)cc1Oc1ccc(F)c2c1CCC2 [Example 57, [4-Chloro-2-(7-fluoroindan-4-yloxy)benzyl]methylamine]
88 to 90 °C | CNCc1ccc(S(C)(=O)=O)cc1Oc1ccc2c(c1)CCC2 [Example 58, [2-(Indan-5-yloxy)-4-methanesulfonylbenzyl]methylamine]
158 to 160 °C | CCSc1ccc(CNC)c(Oc2ccc(Cl)cc2)c1 [Example 60, [2-(4-Chlorophenoxy)-4-ethylsulfanylbenzyl]methylamine]
